What all share (assay type): cell-based
The test system of experiment [1] is H.pylori ATCC 43526. The experiment in a line: Agar Dilution Method, MIC against H.pylori ATCC 43526. The note with it: Helicobacter pylori, ATCC43526, 72 h, read-out: minimum inhibitory concentrations (MIC). The procedure: (§1) Activity against strains of Helicobacter pylori is determined according to the Agar Dilution Method, using Mueller Hinton agar, supplementet with >2 week old horse blood (5% v/v), incubation at 35° C. for 3 days in a gas system-generated microaerobic atmosphere according to NCCLS recommendations, such as disclosed e.g. in “Methods for dilution antimicrobial susceptibility tests for bacteria that grow aerobically ”—Fourth edition; approved standard. M7-A4 Vol. 17 No. 2 (1997) and M100-S9 Vol. 19 No. 1 (1999).
(§2) Activity of TEST COMPOUNDS (TCs) against H.pylori strains ATCC 43504, 43526, 43629, 49503 and 51652 is determined according to the Agar Dilution Method, using Mueller Hinton agar, supplementet with >2 week old horse blood (5% v/v), incubation at 35° C. for 3 days in a gas system-generated microaerobic atmosphere according to NCCLS recommendations, such as disclosed in “Methods for dilution antimicrobial susceptibility tests for bacteria that grow aerobically “—Fourth edition; approved standard. M7-A4 Vol. 17 No. 2 (1997) and M100-S9 Vol. 19 No. 1(1999).

For experiment [2], the system named is H.pylori ATCC 43629. The experiment in a line: Agar Dilution Method, MIC against H.pylori ATCC 43629. The note with it: Helicobacter pylori, ATCC43629, 72 h, read-out: minimum inhibitory concentrations (MIC). The procedure:
as §1, §2

Experiment [3] has as its system H.pylori ATCC 49503. The experiment in a line: Agar Dilution Method, MIC against H.pylori ATCC 49503. Particulars: Helicobacter pylori, ATCC49503, 72 h, read-out: minimum inhibitory concentrations (MIC). The procedure:
as §1, §2
In general terms: In agar dilution, organisms are placed on agar that contains the substance at set levels.

Experiment [4] concerns H.pylori ATCC 51652. The experiment in a line: Agar Dilution Method, MIC against H.pylori ATCC 51652. The note with it: Helicobacter pylori, ATCC51652, 72 h, read-out: minimum inhibitory concentrations (MIC). The procedure: as §1, §2
Experiment [5] deals with H.pylori ATCC 43504. Briefly: Agar Dilution Method, MIC against H.pylori ATCC 43504. The note with it: Helicobacter pylori, ATCC43504, 72 h, read-out: minimum inhibitory concentrations (MIC). The procedure: as §1, §2
[6] abbreviates: H.pylori/43526, Mueller Hinton agar, 5% horse blood, 35° C., 3 days, microaerobic.
The mark [7] stands for this setting: H.pylori/43629, Mueller Hinton agar, 5% horse blood, 35° C., 3 days, microaerobic.
The mark [8] stands for this setting: H.pylori/49503, Mueller Hinton agar, 5% horse blood, 35° C., 3 days, microaerobic.
The mark [9] stands for this setting: H.pylori/51652, Mueller Hinton agar, 5% horse blood, 35° C., 3 days, microaerobic.
Setting [10] is: H.pylori/43504, Mueller Hinton agar, 5% horse blood, 35° C., 3 days, microaerobic.

MIC data for four molecules are collected here from patent US7790749B2, “Use of pleuromutilins for the treatment of disorders caused by Helicobacter pylori” (Nabriva Therapeutics AG, priority 2002, dated 2010).

Converted amounts (≈) assume the structure as drawn. Like-named read-outs stand apart in the source and are kept apart here.

On to `C=C[C@]1(C)C[C@@H](OC(=O)CSc2cccc(NC(=O)[C@@H]3CCCCN3)c2)[C@]2(C)C(C)CCC3(CCC(=O)C32)[C@@H](C)C1O` (some centres unmarked) [TC-II], for which the MIC is 0.05 µg/mL (≈ 0.0838 µM) in experiment [1] (setting [6]); below 0.0125 µg/mL in experiment [2] (setting [7]); 0.025 µg/mL (≈ 0.0419 µM) in experiment [3] (setting [8]); 0.025 µg/mL (≈ 0.0419 µM) in experiment [4] (setting [9]); below 0.0125 µg/mL in experiment [5] (setting [10]).

With `C=C[C@]1(C)C[C@@H](OC(=O)CSC2CCCN(C(=O)C(N)C(C)C)C2)[C@]2(C)C(C)CCC3(CCC(=O)C32)[C@@H](C)C1O` (some centres unmarked) [TC-III], the MIC in experiment [1] (setting [6]) is 0.05 µg/mL (≈ 0.0867 µM); in experiment [2] (setting [7]), below 0.0125 µg/mL; in experiment [3] (setting [8]) it was 0.025 µg/mL (≈ 0.0433 µM); in experiment [4] (setting [9]), 0.025 µg/mL (≈ 0.0433 µM); in experiment [5] (setting [10]) it was 0.025 µg/mL (≈ 0.0433 µM).

Take `C=C[C@]1(C)C[C@@H](OC(=O)CSC(C)(C)CNC(=O)[C@H](N)C(C)C)[C@]2(C)[C@H](C)CC[C@]3(CCC(=O)[C@H]32)[C@@H](C)[C@@H]1O` [TC-I, Valnemulin]: the MIC in experiment [1] (setting [6]) was 0.05 µg/mL (≈ 0.0885 µM); in experiment [2] (setting [7]), below 0.0125 µg/mL; in experiment [3] (setting [8]), below 0.0125 µg/mL; in experiment [4] (setting [9]), 0.025 µg/mL (≈ 0.0443 µM); in experiment [5] (setting [10]) it was 0.025 µg/mL (≈ 0.0443 µM).

Turning to `CN(C)[C@@H]1C(O)=C(C(N)=O)C(=O)[C@@]2(O)C(O)=C3C(=O)c4c(O)cccc4[C@@](C)(O)[C@H]3C[C@@H]12` [TEC, tetracycline], the MIC in experiment [1] was found to be 0.4 µg/mL (≈ 0.9 µM); in experiment [2] it was 0.4 µg/mL (≈ 0.9 µM); in experiment [3], 0.2 µg/mL (≈ 0.45 µM); in experiment [4], 0.2 µg/mL (≈ 0.45 µM); in experiment [5], 0.4 µg/mL (≈ 0.9 µM).
